In data set [1] the test system is primary human hepatocytes. Description: Lactate dehydrogenase. It is filed as cell-based.
Data set [2] concerns MEK–ERK signaling (p-MEK1, p-ERK1/2). The data set can be described thus: Bio-Plex bead-based phosphoprotein assay, MEK–ERK pathway. The format is cell-based, human.
In data set [3] the test system is Akt, p70 S6K, MEK–ERK, and p38–HSP27 signaling pathways. The note with it: donor #2; 100*Cmax.

Take `N#CC(=C(/N)Sc1ccccc1N)/C(C#N)=C(/N)Sc1ccccc1N` [U0126]: the “toxicity induced by inhibitor itself in human hepatocytes” value in data set [1] (donor #3) is listed as “minimal toxicity”. The “inhibition of MEK signaling in human hepatocytes” value in data set [2] (donor #3, selection from panel of candidate inhibitors) is given as “potently inhibit signaling”.

As to `CC[C@H]1OC(=O)[C@H](C)[C@@H](O[C@H]2C[C@@](C)(OC)[C@@H](O)[C@H](C)O2)[C@H](C)[C@@H](O[C@@H]2O[C@H](C)C[C@H](N(C)C)[C@H]2O)[C@](C)(OC)C[C@@H](C)C(=O)[C@H](C)[C@@H](O)[C@]1(C)O` [clarithromycin], the “MEK–ERK signaling under drug treatment” value in data set [2] (donor #1 and donor #2, 100*Cmax) is reported as “sustained activation of MEK–ERK signaling”.

`CN(C)CCCN1c2ccccc2CCc2ccc(Cl)cc21` [clomipramine]: the “activation of the four 'network gauge' signaling pathways compared to control treatments” value in data set [3] is reported as “without significant activation”.

Consider `N[C@@H]1[C@H]2CN(c3nc4c(cc3F)c(=O)c(C(=O)O)cn4-c3ccc(F)cc3F)C[C@@H]12` [trovafloxacin], for which, in data set [1] (drug ± three-cytokine/LPS mix, donors #1 and #2), the “synergistic induction of cell death by drug/cytokine co-treatment” value is “synergistically induced”.

Values taken from paper PMC2943488 (Molecular bioSystems, 2010).
